From patent US9618513B2, “Compositions and methods for detecting and treating colorectal cancer” (The Regents of the University of Michigan, priority 2014, dated 2017)

System: STAT3 occupancy on gene promoters
Assay: STAT3-ChIP assay
Assay type: cell-based, human
Protocol: (A) IL-22 induced STAT3 phosphorylation. Colon cancer cells were treated with IL-22 for different time points. The protein levels of phosphorylated STAT3 and STAT3 were detected by Western blotting. (B, C) IL-22 induced colon cancer spheres via STAT3. Sphere assay was performed with shSTAT3 colon cancer cells in the presence of IL-22. Results were shown as sphere images (b) and the mean numbers of spheres in triplicate (c). (n=5. P<0.01). (D-F) IL-22 stimulated colon cancer sternness gene expression via STAT3. Colon cancer cells expressing shSTAT3 or scrambled vector were cultured with IL-22. Stem cell core gene mRNAs were detected by real-time PCR after 6 hours (n=5, *P<0.05). (G, H) IL-22 causes STAT3 occupancy on SOX2 promoter areas. STAT3-ChIP assay was performed in DLD-1 cells cultured with or without IL-22. One of at least three experiments is shown.
(A-C)IL-22 increases STAT3 occupancy on the DOT1L (A), AFF4 (B), and MLLT3 (C) proximal promoter. STAT3-ChIP assay was performed in DLD-1 colon cancer cells cultured with or without IL-22. One of three experiments is shown. (D-F) STAT3 knock down reduces H3K79me2 occupancy at proximal promoters of core stem cell genes. H3K79me2-ChIP was performed in colon cancer cells cultured with IL-22 for 24 hours. One of three experiments is shown.
A. The protein level of phosphorylated STAT3, STAT1 and STATS were activated by IL-22. B. The effect of STAT3 knock down. C. The effect of IL-22 on cell proliferation was analyzed using H^3 Thymidine Incorporation in Stat3 knock down cells. D. Knock down of STAT3 reduced the expression of EZH2 and SUZ12. E. Based on the ENCODE STAT3-ChIP-Seq data base, STAT3 occupancy on the promoter areas of SUZ12 and EED is shown. F. SUZ12/EED DNA was detected by ChIP assay using an antibody against STAT3, c-fos was used as a positive control.
ChIP assay was performed according to the protocol with exceptions stated below (Upstate, Millipore; http://www. (followed by) millipore.com/techpublications/tech1/mcproto407). Crosslinking was performed with 1% formaldehyde or 1% paraformaldehyde for 10 minutes. […]

IL-22: recombinant IL-22 (R&D systems), cytokine interleukin-22
recruitment of STAT3 to the SUZ12 and EED promoter (ChIP realtime PCR): significantly increased | STAT3 binding on the SOX2 promoter area (DLD-1 with or without IL-22): increased | STAT3 binding to the DOT1L, AFF4 and MLLT3 promoter (DLD-1 with or without IL-22): increased
